# Test system: SNU-16 cells
# Test: Inhibition of FGFR2-dependent cell growth (Cell-titer Glo, 72 hrs)
# Details: Homo sapiens, SNU-16, 72 h, read-out: SNU16 IC50 values
compound,measurement,value
"C=CC(=O)N1CCN(CCCn2c(=O)c(-c3c(Cl)c(OC)cc(OC)c3Cl)cc3cnc(NC4COC4)nc32)CC1 [Example 66, 8-(3-(4-acryloylpiperazin-1-yl)propyl)-6-(2,6-dichloro-3,5-dimethoxyphenyl)-2-(oxetan-3-ylamino)pyrido[2,3-d]pyrimidin-7(8H)-one]",IC50,> 5 µM

# Reference: patent US9567334B2, “Quinolone derivatives as fibroblast growth factor receptor inhibitors” (Principia Biopharma, Inc., priority 2014, dated 2017)
